Measurements reported in patent publication US12472204B2, “Compound of element acid, which is in allotropic form, which enters into cellular interaction in some bone diseases” (CELAL BAYAR UNIVERSITESI DIGER MERKEZLER MUDURLUGU, priority 2020, dated 2025).

Tests used:
[1] = tested on: osteoblast cells where ageing model is formed by hydroxy-urea
Procedure: (§1) The 2nd group has been determined as the boric acid group by adding 0.1 mM boric acid into the osteoblast culture medium. The 3rd group is the ageing group and has been cultured with 1 mM hydroxy-urea to the osteoblast culture medium and has been determined as the experimental brittle bone disease group. The 4th group has been determined as the group where boric acid is applied to the osteogenesis imperfecta model by applying […] boric acid to the cells where ageing model has been formed. Boric acid has been applied to 2nd and 4th groups for 72 hours and group 1 and group 3 have been cultured in their own culture media at the same durations.

[2] = tested on: osteoblast cells where hydroxy-urea is applied (in-vitro brittle bone disease model)
Procedure: as §1

[3] = after applying boric acid, hydroxy-urea ageing model
[4] = 4th group: osteoblast + 1 mM hydroxy-urea + boric acid, 72 hours

SMILES: OB(O)O [boric acid, Boric acid]
- cellular morphology [1, 3]: improved
- immuno-reactivity of osteocalcin released by osteoblasts [1, 3]: increases
- immuno-reactivity of osteonectin released by osteoblasts [1, 3]: increases
- proliferation in cells where ageing model is formed by hydroxy-urea ([1]; concluded from Ki-67 immuno-reactivity): triggers proliferation
- immuno-reactivity of Ki-67 (proliferation marker) ([1]; osteoblasts where boric acid is applied): greater
- cytoplasmic vacuoles [2, 4]: begin to occur
- epithelioid structure of osteoblast cells [2, 4]: preserve their epithelioid structures
- intercellular vacuoles [2, 4]: decrease
- augmentation of osteoblasts and protection of these cells from ageing ([2]; boric acid applied to the in-vitro model): favorable effects
